Laboratory results from ChEMBL document CHEMBL1201862, “PubChem BioAssay data set” (2004).
Counter-ions that a name gives are not always drawn. Calls of active or inactive are those of the source.

Assays:
[1] = NIH-3T3 fibroblast cytotoxicity, dose response, cytotoxicity control, cell-based, fluorescence, Alamar Blue, secondary assay (AID 2327); assay type: functional;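 further: NIH-3T3 mouse fibroblasts cultured with fluconazole at 8 µg/mL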
[2] = C. albicans growth with fluconazole, confirmation, fluorescence, retest (AID 2467); assay type: functional, cell-based
[3] = P. falciparum Dd2 growth inhibitors, dose response, SYBR Green, cherry-picked samples (AID 1159567); assay type: functional, cell-based
[4] = Luminescence Cell-Based Dose Retest to Confirm Inhibitors of Cancer Stem Cells. [Related pubchem assays (depositor defined):AID2717, AID2721]; assay type: functional; settings: Homo sapiens
[5] = biological target: T1, Heat shock factor protein 1 (Mus musculus, UniProt P38532); assay: HSF1 potentiators in luciferase reporter cells, confirmation, cell-based, NIH3T3, luminescence, dose retest (AID 435004); assay type: functional;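 further: stress induced by proteasome inhibitor MG132 added 30 min after compound; luciferase reporter driven by HSF1 response element in NIH3T3 cells; actives raise luminescence as potentiators of the MG132 stress response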
T1 sequence (P38532 whole entry): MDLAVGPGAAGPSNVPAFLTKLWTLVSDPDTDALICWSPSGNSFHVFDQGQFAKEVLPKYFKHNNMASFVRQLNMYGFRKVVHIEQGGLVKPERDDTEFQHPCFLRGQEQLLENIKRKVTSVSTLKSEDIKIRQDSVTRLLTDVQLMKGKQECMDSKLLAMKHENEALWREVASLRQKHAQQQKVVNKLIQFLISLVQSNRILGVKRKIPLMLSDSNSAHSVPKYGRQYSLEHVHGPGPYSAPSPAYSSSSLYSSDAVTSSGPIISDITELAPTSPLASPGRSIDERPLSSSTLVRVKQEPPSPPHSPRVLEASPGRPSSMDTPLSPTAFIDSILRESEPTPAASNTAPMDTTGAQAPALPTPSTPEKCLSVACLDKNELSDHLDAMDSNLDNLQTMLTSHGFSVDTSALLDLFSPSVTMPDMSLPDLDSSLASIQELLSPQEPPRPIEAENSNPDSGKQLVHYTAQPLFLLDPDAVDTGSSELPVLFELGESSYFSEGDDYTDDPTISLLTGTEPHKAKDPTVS

[6] = Shn3 3'UTR reporter inhibitors, dose response, cell-based, Clone20 osteoblasts, firefly luciferase, cherry-picked (AID 624132); assay type: functional;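 further: firefly luciferase luminescence from reporter carrying the Shn3 3'UTR in osteoblasts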
[7] = control 3'UTR Renilla luciferase suppression, dose response, counter-screen for Shn3 inhibitor project, cell-based, Clone20-Shn3RL, cherry-picked (AID 624133); assay type: functional
[8] = Luminescence Cell-Based Dose Confirmation HTS to Identify Inhibitors of Platelet Dense Granule Release. [Related pubchem assays: 1663 (Primary HTS), 1678 (Summary of Project)]; assay type: functional
[9] = biological target: Luciferin 4-monooxygenase (Photinus pyralis, UniProt P08659); assay: firefly luciferase enzyme inhibitors, dose response, biochemical, luminescence (AID 1891)
Cytochrome P450 2C19 = Cytochrome P450 2C19 (Homo sapiens, UniProt P33261); assay: Cytochrome panel assay with activity outcomes. Panel member name: p450-cyp2c19 Compounds with AC50 equal or less than 10 uM are considered active; assay type: functional
Cytochrome P450 2D6 = Cytochrome P450 2D6 (Homo sapiens, UniProt P10635);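 further: CYP2D6 member of a cytochrome P450 panel assay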
[10] = test system: Streptococcus sp. 'group A'; assay: growth inhibition of control SK(-) GAS strain, dose response, counter-screen for streptokinase expression inhibitor project, luminescence, kanamycin, BacTiterGlo, confirmation (AID 1900); assay type: functional, organism-based
Streptokinase A = biological target: T2, Streptokinase A (Streptococcus pyogenes serotype M1, UniProt P10520); assay: S. pyogenes streptokinase expression inhibitors, potency, dose response, plasminogen activation absorbance, OD405 (AID 1914); assay type: functional, Streptococcus pyogenes M1 GAS;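 further: secreted streptokinase activity via plasminogen activation per viability signal from cell pellet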
T2 sequence (P10520 whole entry): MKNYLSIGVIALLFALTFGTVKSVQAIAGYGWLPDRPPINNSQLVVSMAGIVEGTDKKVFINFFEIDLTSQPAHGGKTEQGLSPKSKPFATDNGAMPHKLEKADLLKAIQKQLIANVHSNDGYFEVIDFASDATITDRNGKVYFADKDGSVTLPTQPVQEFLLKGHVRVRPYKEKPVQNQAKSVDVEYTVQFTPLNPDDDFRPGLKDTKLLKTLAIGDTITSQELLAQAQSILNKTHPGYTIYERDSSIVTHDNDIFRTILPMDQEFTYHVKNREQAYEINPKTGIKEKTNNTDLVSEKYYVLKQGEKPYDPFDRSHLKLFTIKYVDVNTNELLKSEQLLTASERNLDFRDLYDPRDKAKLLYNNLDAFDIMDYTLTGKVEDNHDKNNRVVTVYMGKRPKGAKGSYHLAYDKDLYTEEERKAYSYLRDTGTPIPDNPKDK

[11] = biological target: T3, Corticotropin-releasing factor receptor 2/Corticotropin-releasing factor-binding protein (Homo sapiens, UniProt P24387+Q13324); assay: activators of CRF receptor 2 with binding protein – uHTS hits, confirmation (AID 602473); assay type: functional; settings: read-out: EC50_Mean
T3 sequence (Q13324 whole entry): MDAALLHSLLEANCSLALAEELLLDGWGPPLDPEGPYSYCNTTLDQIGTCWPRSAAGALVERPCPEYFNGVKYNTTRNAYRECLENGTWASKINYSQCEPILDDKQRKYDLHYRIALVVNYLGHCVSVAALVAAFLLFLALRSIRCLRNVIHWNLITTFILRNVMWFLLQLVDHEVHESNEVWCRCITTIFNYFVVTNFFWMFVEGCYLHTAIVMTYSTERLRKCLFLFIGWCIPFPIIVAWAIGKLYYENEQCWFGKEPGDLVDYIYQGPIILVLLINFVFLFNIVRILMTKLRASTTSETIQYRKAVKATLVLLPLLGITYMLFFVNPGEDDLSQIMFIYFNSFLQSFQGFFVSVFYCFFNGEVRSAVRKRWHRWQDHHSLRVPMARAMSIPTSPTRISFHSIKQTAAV
T3 sequence (P24387 whole entry): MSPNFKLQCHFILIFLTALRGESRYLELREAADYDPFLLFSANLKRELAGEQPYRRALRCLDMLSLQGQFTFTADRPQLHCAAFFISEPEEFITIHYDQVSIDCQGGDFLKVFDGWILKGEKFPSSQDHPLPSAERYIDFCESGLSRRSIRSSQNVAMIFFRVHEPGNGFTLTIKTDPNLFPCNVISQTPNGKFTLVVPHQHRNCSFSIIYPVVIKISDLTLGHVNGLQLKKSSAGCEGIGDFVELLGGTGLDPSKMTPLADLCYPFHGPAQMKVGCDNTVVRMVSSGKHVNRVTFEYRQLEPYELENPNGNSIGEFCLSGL

Streptococcus = assay: Group A Streptococcus viability loss, dose response, counter-screen for streptokinase expression inhibitor project, luminescence, BacTiterGlo (AID 1915); assay type: functional, organism-based;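 further: potency for reduction of bacterial viability or growth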
Cytochrome P450 3A4 = Cytochrome P450 3A4 (Homo sapiens, UniProt P08684);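 further: CYP3A4 tested as one member of a cytochrome P450 panel screen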
Cytochrome P450 1A2 = biological target: T4, Cytochrome P450 1A2 (Homo sapiens, UniProt P05177);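 further: PubChem cytochrome P450 panel assay, CYP1A2 panel member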
T4 sequence (P05177 whole entry): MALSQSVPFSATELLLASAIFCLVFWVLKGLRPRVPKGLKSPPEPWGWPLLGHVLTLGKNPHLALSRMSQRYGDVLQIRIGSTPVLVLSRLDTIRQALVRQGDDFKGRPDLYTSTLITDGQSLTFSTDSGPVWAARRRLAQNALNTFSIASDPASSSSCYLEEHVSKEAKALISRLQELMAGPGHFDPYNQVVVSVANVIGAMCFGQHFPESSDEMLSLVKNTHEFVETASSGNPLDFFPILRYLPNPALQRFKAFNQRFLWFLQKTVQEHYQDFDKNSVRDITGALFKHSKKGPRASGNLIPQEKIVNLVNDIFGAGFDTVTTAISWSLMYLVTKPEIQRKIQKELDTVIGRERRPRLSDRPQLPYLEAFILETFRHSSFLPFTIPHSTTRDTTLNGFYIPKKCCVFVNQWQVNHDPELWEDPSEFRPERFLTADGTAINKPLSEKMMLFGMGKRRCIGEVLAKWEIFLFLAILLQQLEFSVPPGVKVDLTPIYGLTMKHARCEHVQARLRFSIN

Luciferin 4-monooxygenase, sequence (P08659 whole entry): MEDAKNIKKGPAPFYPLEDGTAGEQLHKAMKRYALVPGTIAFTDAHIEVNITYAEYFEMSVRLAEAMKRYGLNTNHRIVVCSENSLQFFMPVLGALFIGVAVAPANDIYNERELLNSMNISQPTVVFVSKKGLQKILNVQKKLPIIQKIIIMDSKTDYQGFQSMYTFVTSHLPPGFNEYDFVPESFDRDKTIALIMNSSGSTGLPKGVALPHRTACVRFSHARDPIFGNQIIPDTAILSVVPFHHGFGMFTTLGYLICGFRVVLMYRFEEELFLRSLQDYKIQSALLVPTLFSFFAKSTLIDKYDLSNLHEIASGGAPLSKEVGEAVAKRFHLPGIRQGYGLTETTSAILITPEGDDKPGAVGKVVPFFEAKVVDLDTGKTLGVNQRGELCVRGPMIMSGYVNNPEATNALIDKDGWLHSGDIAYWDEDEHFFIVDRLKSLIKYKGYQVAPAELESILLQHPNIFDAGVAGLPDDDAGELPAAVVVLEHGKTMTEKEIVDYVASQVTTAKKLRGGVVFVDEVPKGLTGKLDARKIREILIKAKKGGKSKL
Cytochrome P450 2C19, sequence (P33261 whole entry): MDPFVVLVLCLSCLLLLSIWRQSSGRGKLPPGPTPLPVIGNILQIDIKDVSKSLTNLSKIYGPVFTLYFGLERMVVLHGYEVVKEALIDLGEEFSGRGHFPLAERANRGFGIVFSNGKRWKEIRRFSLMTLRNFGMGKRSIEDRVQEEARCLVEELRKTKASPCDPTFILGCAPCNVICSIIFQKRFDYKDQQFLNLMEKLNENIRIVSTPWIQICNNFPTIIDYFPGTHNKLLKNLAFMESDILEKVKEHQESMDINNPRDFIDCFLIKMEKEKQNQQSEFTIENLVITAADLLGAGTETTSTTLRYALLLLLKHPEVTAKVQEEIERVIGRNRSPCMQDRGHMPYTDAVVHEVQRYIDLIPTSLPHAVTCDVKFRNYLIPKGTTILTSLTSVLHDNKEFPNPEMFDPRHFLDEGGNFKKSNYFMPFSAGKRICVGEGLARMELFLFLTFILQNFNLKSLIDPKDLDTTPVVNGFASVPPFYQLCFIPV
Cytochrome P450 2D6, sequence (P10635 whole entry): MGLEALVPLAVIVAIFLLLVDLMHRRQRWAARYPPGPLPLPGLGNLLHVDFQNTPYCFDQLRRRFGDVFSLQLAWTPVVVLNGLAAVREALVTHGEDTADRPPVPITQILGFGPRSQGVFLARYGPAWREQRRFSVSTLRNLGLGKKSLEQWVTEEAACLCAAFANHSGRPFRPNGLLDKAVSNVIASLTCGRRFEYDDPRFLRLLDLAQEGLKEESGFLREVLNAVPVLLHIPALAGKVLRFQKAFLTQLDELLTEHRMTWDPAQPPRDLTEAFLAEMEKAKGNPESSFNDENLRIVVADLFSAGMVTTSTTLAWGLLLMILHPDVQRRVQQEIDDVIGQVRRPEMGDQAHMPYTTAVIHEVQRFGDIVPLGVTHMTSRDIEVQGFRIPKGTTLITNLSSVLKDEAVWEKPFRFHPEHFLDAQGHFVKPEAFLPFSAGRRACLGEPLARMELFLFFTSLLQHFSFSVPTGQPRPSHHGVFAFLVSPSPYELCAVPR
Cytochrome P450 3A4, sequence (P08684 whole entry): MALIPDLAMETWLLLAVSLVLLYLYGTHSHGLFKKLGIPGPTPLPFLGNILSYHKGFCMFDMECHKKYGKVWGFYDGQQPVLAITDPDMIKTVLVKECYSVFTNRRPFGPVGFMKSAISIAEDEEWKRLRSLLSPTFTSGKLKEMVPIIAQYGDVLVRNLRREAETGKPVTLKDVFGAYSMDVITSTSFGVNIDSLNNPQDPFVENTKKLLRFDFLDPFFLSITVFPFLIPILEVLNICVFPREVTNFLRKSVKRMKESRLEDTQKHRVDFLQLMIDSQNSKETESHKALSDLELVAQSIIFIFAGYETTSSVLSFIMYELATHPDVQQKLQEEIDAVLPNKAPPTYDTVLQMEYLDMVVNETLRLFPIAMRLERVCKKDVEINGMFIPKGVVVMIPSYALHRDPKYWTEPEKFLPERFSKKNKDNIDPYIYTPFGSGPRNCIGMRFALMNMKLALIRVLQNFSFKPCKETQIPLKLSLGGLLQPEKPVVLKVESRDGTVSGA

| Compound | EC50 [8] | EC50 [9] | AC50 (Cytochrome P450 2C19; read-out: AC50) | further results |
| --- | --- | --- | --- | --- |
| O=C(NCc1ccc(Cl)cc1)c1n[nH]c([N+](=O)[O-])c1Cl | – | – | – | EC50 [1]: > 160 µM (inactive); EC50 [2]: 0.123 µM (active) |
| CCCN(C)C[C@@H]1Oc2cc(C#CC3CCCC3)ccc2S(=O)(=O)N([C@@H](C)CO)C[C@@H]1C | – | – | – | AC50 [3]: 4.85 µM (active) |
| O=C(CCC(=O)N1CCN(c2ccc(O)cc2)CC1)c1ccc(Br)cc1 | – | – | – | AC50 [4]: 6.98 µM (active); EC50 [5]: > 260 µM (inactive) |
| Cc1ccc(CNC(=O)c2cc(-c3ccccc3C)nn2CC2CC(c3cccnc3)=NO2)cc1 (stereo not drawn) | – | – | – | AC50 [6]: > 70 µM (inactive); AC50 [7]: 29 µM (active) |
| COc1ccc(-c2nnc(-c3ccccc3)o2)cc1OC | 72.5 µM (active) | > 112 µM (not active) | – | – |
| O=C(OC1CCOC1=O)c1cc(Cl)ccc1[N+](=O)[O-] (stereo not drawn) | – | – | – | EC50 [5]: > 260 µM (inactive) |
| CN(C)c1ccc(/C=N/NC(=O)c2ccnn2C)cc1 | 1.32 µM (active) | 6.24 µM (active) | – | – |
| Cc1cccc(NC(=O)CNC(=O)COC(=O)CCS(=O)(=O)c2ccccc2)c1C | > 112 µM (not active) | > 112 µM (not active) | – | – |
| O=C(CN1CCN(c2ccccc2)CC1)N1N=CCC1c1ccccc1 (stereo not drawn) | > 112 µM (not active) | > 112 µM (not active) | – | – |
| N=C(N)SCc1nc2ccccc2c(=O)n1-c1ccccc1Cl | – | – | 10 µM (inconclusive) | AC50 [4]: 6.37 µM (active); AC50 (Cytochrome P450 2D6): 0.316 µM (inconclusive) |
| CC(C(=O)Nc1ccccc1Br)N1c2cccc3cccc(c23)S1(=O)=O (stereo not drawn) | – | – | – | EC50 [5]: > 260 µM (inactive) |
| COc1ccc(NC(=O)NC2CC3CCCC(C2)N3Cc2ccccc2)cc1 (stereo not drawn) | – | – | 14.1 µM (inconclusive) | AC50 (Cytochrome P450 2D6): 11.2 µM (inconclusive) |
| O=C(NCC1(N2CCCCC2)CCCCC1)c1ccc(NS(=O)(=O)c2ccc(F)cc2)cc1 | > 112 µM (not active) | > 112 µM (not active) | – | – |
| COc1ccc(CC(=O)Nc2ccc(-c3cn4ccccc4n3)cc2)cc1OC | > 112 µM (not active) | > 112 µM (not active) | – | – |
| O=C(CSc1nnc(SCc2ccc(F)cc2)s1)Nc1ccc(C(=O)O)cc1 | 39.4 µM (active) | > 112 µM (not active) | – | – |
| CC(C)OC(=O)c1c(NS(=O)(=O)c2ccccc2)sc2c1CCCC2 | – | – | – | EC50 [10]: 3.69 µM (active); EC50 (Streptokinase A): > 150 µM (not active); EC50 [11]: 14 µM (active); EC50 (Streptococcus): 7.93 µM (active) |

| Compound | EC50 [8] | EC50 [9] | AC50 (Cytochrome P450 2C19; read-out: AC50) | further results |
| --- | --- | --- | --- | --- |
| Cc1cc(-n2ccc(=O)[nH]c2=O)nc(-c2ccccc2)n1 | 15.4 µM (active) | > 112 µM (not active) | – | – |
| Cc1c(OCC(=O)N2CCN(c3ccccc3)CC2)ccc2c3c(c(=O)oc12)CCCC3 | > 112 µM (not active) | > 112 µM (not active) | – | – |
| Cc1cc2c(ncn2C)c(NS(=O)(=O)c2cc(Cl)ccc2Cl)c1C | – | – | – | EC50 [5]: > 260 µM (inactive) |
| COc1ccc(-c2c[nH]nc2-c2ccc(OCc3ccc([N+](=O)[O-])cc3)cc2O)cc1OC | – | – | – | EC50 [5]: > 260 µM (inactive) |
| COc1ccc(NC(=O)COc2ccc(CNCCCN3CCOCC3)cc2OC)cc1.Cl | – | – | – | AC50 (Cytochrome P450 2C19): inconclusive |
| C=CCn1c(S)nnc1C1CCCCC1 | – | – | – | EC50 [5]: > 260 µM (inactive) |
| N#Cc1ccc(CN2CC3(CCN(C(=O)c4cc(C(F)(F)F)cc(C(F)(F)F)c4)CC3)C2)cc1 | – | – | 39.8 µM (inconclusive) | AC50 (Cytochrome P450 2D6): 31.6 µM (inconclusive) |
| COc1ccc2nc(NC(=O)CSc3nnc(C)s3)sc2c1 | – | – | 3.55 µM (inconclusive) | AC50 (Cytochrome P450 3A4): 3.98 µM (inconclusive) |
| CC(=O)Nc1ccc(NC(=O)c2ccccc2CC[N+](=O)[O-])cc1 | – | – | 0.355 µM (inconclusive) | AC50 (Cytochrome P450 2D6): 14.1 µM (inconclusive) |
| CCOC(=O)c1ccccc1NC(=O)/C(C)=C/C(=O)O | – | – | 39.8 µM (inconclusive) | AC50 (Cytochrome P450 1A2): 20 µM (inconclusive) |
| CC(=O)c1nn(-c2cccc(Br)c2)cc1C(=O)c1ccc(Cl)cc1 | – | – | – | EC50 [5]: > 260 µM (inactive) |
| COCCn1c(=O)c(-c2cn(C)c3ccccc23)nc2cnc(Oc3ccc(OC)cc3)nc21 | – | – | 15.8 µM (inconclusive) | AC50 (Cytochrome P450 1A2): 2.51 µM (inconclusive) |
| Cc1cc(C)c(C)c(OCC(O)CN2CCN(c3ccccn3)CC2)c1 (stereo not drawn) | > 112 µM (not active) | > 112 µM (not active) | – | – |
| CCc1noc(N)c1C(=O)Nc1ccc(F)c(Cl)c1 | – | – | 15.8 µM (inconclusive) | AC50 (Cytochrome P450 3A4): 15.8 µM (inconclusive); AC50 (Cytochrome P450 2D6): 22.4 µM (inconclusive) |
| CN1CCN([C@@H](c2ccccc2)c2ccc(Cl)cc2)CC1 [CHLORCYCLIZINE HYDROCHLORIDE] | – | – | 3.98 µM (inconclusive) | – |
| CC(C)CN1CCCC2(CCN(S(=O)(=O)c3ccccc3)CC2)C1 | – | – | 31.6 µM (inconclusive) | – |
